The subject of the first assay is gpIIb/IIIa complex.
Assay: not given
As to conditions: snake venom polypeptides; cited from earlier work.
In the case of Echistatin, the “affinity for the gpIIb/IIIa complex” value is recorded as “high affinity”.

Another assay concerns fibronectin and vitronectin.
Assay: not given
As to conditions: cited from earlier work.
As to “arginine-glycine-aspartic acid [Arg-Gly-Asp]”, the “activity of the tri-peptide” value is on record as “low activity”.

The next assay deals with human platelets. Briefly: ADP-stimulated platelet aggregation assay (gel-filtered human platelets). It is filed as cell-based. The note with it: fibrinogen, CaCl2 1 mM, ADP-initiated, initial rate of increase of light transmittance, read-out: IC50 (inhibition of platelet aggregation). The source says:
In addition to the following preparative procedures, several examples of in-vitro bioactivity of compounds within the scope of the present invention are indicated. To illustrate, one test which is used to evaluate fibrinogen receptor antagonist activity is based on evaluation of inhibition of ADP-stimulated platelets. Aggregation requires that fibrinogen bind to and occupy the platelet fibrinogen receptor site. Inhibitors of fibrinogen binding inhibit aggregation. In the ADP-stimulated platelet aggregation assay used to determine inhibition associated with the compounds claimed in the instant invention, human platelets are isolated from fresh blood, collected into acid citrate/dextrose by differential centrifugation followed by gel filtration on Sepharose 2 B in divalent ion-free Tyrode's buffer (pH 7.4) containing 2% bovine serum albumin.
Platelet aggregation is measured at 37° C. in a Chronolog aggregometer. The reaction mixture contains gel-filtered human platelets (2×10^8 per ml), fibrinogen (100 micrograms per ml (ug/ml)), Ca^2+ (1 mM), and the compound to be tested. The aggregation is initiated by adding 10 μM ADP 1 minute after the other components are added. The reaction is then allowed to proceed for at least 2 minutes. The extent of inhibition of aggregation is expressed as the percentage of the rate of aggregation observed in the absence of inhibitor. The IC50 is the dose of a particular compound inhibiting aggregation by 50% relative to a control lacking the compound.
The test procedures employed to measure the anti-platelet aggregating activity of the compounds of the present invention are described below.
Blood was drawn into 0.1 volumes of acid citrate-dextrose (85 mM sodium citrate, 64 mM citric acid, 110 mM dextrose) by venipuncture from normal human volunteers. Platelet-rich plasma was prepared by centrifugation at 400× g for 12 minutes. PGEl (5 mg/ml) was added and platelets were collected by centrifugation at 800× g for 12 minutes. The platelet pellet was resuspended into human platelet buffer (140 mM NaCl, 7.9 mM KCl, 3.3 mM Na2 HPO4, 6 mM HEPES, 2% bovine serum albumin, 0.1% dextrose, pH 7.2) and filtered over Sepharose 2B that was previously equilibrated in human platelet buffer. Human fibrinogen ([…]) and Ca Cl2 (1 mM) were added and aggregation was initiated by the addition of […]. Aggregation was monitored by the initial rate of increase of light transmittance.
What is called IC50 is the concentration at which inhibition is half-maximal. In the case of `O=C(O)C(Cc1ccc(OCCCCC2CCNCC2)cc1)C(=O)O` [CO2 H, 2-Carboxy-3-[4-(4-Piperidin-4-yl)butyloxyphenyl]propanoic acid], the IC50 came out at 3.2 µM.
Same read-out and setting: to `O=C(O)C(CNCc1ccccc1)Cc1ccc(OCCCCC2CCNCC2)cc1` (centres unmarked) [CH2 NHCH2 Ph, 2-[4-(4-Piperidin-4-yl)butyloxy]phenylmethyl-3-(benzylamino)propanoic acid] belongs 18 µM.
The same measure, in the same setting: with `O=C(O)C(Cc1ccccc1)Cc1ccc(OCCCCC2CCNCC2)cc1` (centres unmarked) [CH2 Ph, 3-[4-(4-Piperidin-4-yl)butyloxyphenyl]-2-(benzyl)propanoic acid] the figure was 115 µM.
Consider `CCCCS(=O)(=O)CC(Cc1ccc(OCCCCC2CCNCC2)cc1)C(=O)O` (centres unmarked) [CH2 SO2 C4 H9, 2-[4-(4-Piperidin-4-yl)butyloxy]phenylmethyl-3-(n-butylsulfonyl)propanoic acid], for which the half-inhibitory concentration (IC50) turned out to be 0.65 µM.
As for `CCCCS(=O)(=O)NCC(Cc1ccc(OCCCCC2CCNCC2)cc1)C(=O)O` (centres unmarked) [CH2 NHSO2 C4 H9, 2-[4-(4-Piperindin-4-yl)butyloxy]phenylmethyl-3-(n-butylsulfonylamino)propanoic acid], the concentration for half-maximal inhibition (IC50) stood at 2.9 µM.
Same read-out and setting: to `O=C(NCC(Cc1ccc(OCCCCC2CCNCC2)cc1)C(=O)O)c1ccccc1` (centres unmarked) [CH2 NHC(O)Ph, 2-[4-(4-Piperidin-4-yl)butyloxy]phenylmethyl-3-(benzoylamino)propanoic acid] belongs 3.1 µM.
Take `COC(=O)C(Cc1ccc(OCCCCC2CCNCC2)cc1)C(=O)O` (centres unmarked) [CO2 CH3, 2-(Carbomethoxy)-3-[4-(4-piperidin-4-yl)butyloxyphenyl]propanoic acid]: the IC50 worked out at 5.8 µM.
As to `O=C(O)C(Cc1ccc(OCCCCC2CCNCC2)cc1)CS(=O)(=O)Cc1ccccc1` (centres unmarked) [CH2 SO2 CH2 Ph, 2-[4-(4-N-piperidin-4-ylbutyloxy]phenylmethyl]-3-(benzylsulfonyl)propanoic acid], the half-inhibitory concentration (IC50) was found to be 1.6 µM.
Still for that read-out and setting: to `O=C(O)C(O)Cc1ccc(OCCCCC2CCNCC2)cc1` (centres unmarked) [OH, 2-Hydroxy-3-[4-(4-piperidin-4-yl)butyloxyphenyl]propanoic acid] belongs 8.6 µM.

(Values after patent publication US5227490A, “Fibrinogen receptor antagonists” (Merck & Co., Inc., priority 1992, dated 1993).)
